# How the values were obtained:
# cocklebur = experiment: Test C postemergence cocklebur; type: in vivo, Xanthium strumarium; conditions: 0 to 100 scale, 0 no effect, 100 complete control
# Summary of the method: (§1)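 Compounds in a non-phytotoxic solvent with surfactant were sprayed postemergence on greenhouse-grown plants in 60:40 sandy loam/potting mix. After about 14 to 21 days, visual ratings against untreated controls on a 0 (no effect) to 100 (complete control) scale.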
# giant foxtail = experiment: Test C postemergence giant foxtail; type: in vivo, Setaria faberii; conditions: 0 to 100 scale, 0 no effect, 100 complete control
# Method: (§2) Compounds evaluated in this test were formulated in a non-phytotoxic solvent mixture which included a surfactant and applied to plants that were grown for various periods of time before treatment (postemergence application). A mixture of sandy loam soil and greenhouse potting mix in a 60:40 ratio was used for the postemergence test.
# Plantings of these crops and weed species were adjusted to produce plants of appropriate size for the postemergence test. All plant species were grown using normal greenhouse practices. Crop and weed species include arrowleaf sida (Sida rhombifolia), barnyardgrass (Echinochloa crus-galli), cocklebur (Xanthium strumarium), common ragweed (Ambrosia elatior), corn (Zea mays), cotton (Gossypium hirsutum), eastern black nightshade (Solanum ptycanthum), fall panicum (Panicum dichotomiflorum), field bindweed (Convolvulus arvensis), giant foxtail (Setaria faberii), hairy beggarticks (Bidens pilosa), ivyleaf morningglory (Ipomoea hederacea), johnsongrass (Sorghum halepense), ladysthumb smartweed (Polygonum persicaria), lambsquarters (Chenopodium album), large crabgrass (Digitaria sanguinalis), purple nutsedge (Cyperus rotundus), redroot pigweed (Amaranthus retroflexus), soybean (Glycine max), surinam grass (Brachiaria decumbens), velvetleaf (Abutilon theophrasti) and wild poinsettia (Euphorbia heterophylla).
# Treated plants and untreated controls were maintained in a greenhouse for approximately 14, to 21 days, after which all treated plants were compared to untreated controls and visually evaluated. Plant response ratings, summarized in Table C, were based upon a 0 to 100 scale where 0 was no effect and 100 was complete control. A dash response (−) means no test result.
# surinam grass = experiment: Test C postemergence surinam grass; type: in vivo, Brachiaria decumbens; conditions: 0 to 100 scale, 0 no effect, 100 complete control
# Summary of the method: as §1
# sugar beet = experiment: Test E sugar beet; type: in vivo, Beta vulgaris; conditions: Preemergence
# spring wheat = experiment: Test E spring wheat; type: in vivo, Triticum aestivum; conditions: Preemergence
# wild buckwheat = experiment: Test E wild buckwheat; type: in vivo, Polygonum convolvulus; conditions: Postemergence
# Method: as §2, with “in the 1- to 4-leaf stage” for “grown for various periods of time before treatment”
# Plantings of these crops and weed species were adjusted to produce plants of appropriate size for the postemergence test. All plant species were grown using normal greenhouse practices. Crop and weed species include annual bluegrass (Poa annua), blackgrass (Alopecurus myosuroides), black nightshade (Solanum nigra), chickweed (Stellaria media), common poppy (Papaver rhoeas), deadnettle (Lamium amplexicaule), downy brome (Bromus tectorum), field violet (Viola arvensis), galium (Galium aparine), green foxtail (Setaria viridis), Italian ryegrass (Lolium multiflorum), jointed goatgrass (Aegilops cylindrica), kochia (Kochia scoparia), lambsquarters (Chenopodium album), littleseed canarygrass (Phalaris minor), rape (Brassica napus), redroot pigweed (Amaranthus retroflexus), Russian thistle (Salsola kali), scentless chamomile (Matricaria inodora), spring barley (Hordeum vulgare), sugar beet (Beta vulgaris), sunflower (Helianthus annuus), ivyleaf speedwell (Veronica hederaefolia), spring wheat (Triticum aestivum), winter wheat (Triticum aestivum), wild buckwheat (Polygonum convolvulus), wild mustard (Sinapis arvensis), wild oat (Avena fatua), windgrass (Apera spica-venti) and winter barley (Hordeum vulgare).
# Treated plants and untreated controls were maintained in a greenhouse for approximately 21 to 28 days, after which all treated plants were compared to untreated controls and visually evaluated. […] A dash response (-) means no test result.
# goosegrass = experiment: Test D goosegrass; type: in vivo, Eleusine indica; conditions: Postemergence, 0 to 100 scale
# Alexandergrass = experiment: Test D Alexandergrass; type: in vivo, Brachiaria plantaginea; conditions: Postemergence, 0 to 100 scale
# bermuda-grass = experiment: Test D bermudagrass; type: in vivo, Cynodon dactylon; conditions: Postemergence, 0 to 100 scale
# maize hybrid P33G26 = experiment: Test G maize injury with safener-treated seed; conditions: for Mean plant response rating, maize: 28 days after application
# Summary of the method: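 Maize hybrid P33G26 seed, treated with dichlormid, fenchlorazole-ethyl or naphthalic anhydride or left untreated, was sown in soil pots, then sprayed pre-emergence with several compound rates at 310 L/ha. Plants grew in a greenhouse (14 h day, about 27/24 °C day/night), with 4–5 replicates. Injury was scored visually against untreated controls 28 days after application.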
# [1] = Rate 125 g/ha, 0 to 100 scale (0 no effect, 100 complete control)
# [2] = Rate 500 g/ha, 0 to 100 scale where 0 is no effect and 100 is complete control
# [3] = Rate 500 g/ha, 0 to 100 scale, 0 no effect, 100 complete control
# [4] = Rate 16 g/ha, 0 no injury, 100 complete control
# [5] = Rate 32 g/ha, 0 no injury, 100 complete control
# [6] = Rate 64 g/ha, 0 no injury, 100 complete control
# [7] = Rate 125 g/ha, 0 no injury, 100 complete control
smiles,measurement,setting,value
CCn1c(=O)on(C(=O)N(c2ccccc2)C(C)C)c1=O [Compound 117],"Plant response rating, Cocklebur",cocklebur; Rate 140 g/ha,0
same,"Plant response rating, Cocklebur",cocklebur; Rate 280 g/ha,0
same,"Plant response rating, Cocklebur",cocklebur; Rate 560 g/ha,0
same,"Plant response rating, Cocklebur",cocklebur; Rate 1120 g/ha,0
same,"Plant response rating, Giant foxtail",giant foxtail; Rate 140 g/ha,0
same,"Plant response rating, Giant foxtail",giant foxtail; Rate 280 g/ha,60
same,"Plant response rating, Giant foxtail",giant foxtail; Rate 560 g/ha,75
same,"Plant response rating, Giant foxtail",giant foxtail; Rate 1120 g/ha,80
same,"Plant response rating, Surinam grass",surinam grass; Rate 140 g/ha,0
same,"Plant response rating, Surinam grass",surinam grass; Rate 280 g/ha,0
same,"Plant response rating, Surinam grass",surinam grass; Rate 560 g/ha,40
same,"Plant response rating, Surinam grass",surinam grass; Rate 1120 g/ha,90
CC(C)N(C(=O)n1oc(=O)n(C(C)C)c1=O)c1ccc(Cl)cc1 [Compound 114],"Plant response rating, Sugar beet",sugar beet; [1],20
same,"Plant response rating, Sugar beet","sugar beet; Rate 250 g/ha, 0 to 100 scale",40
same,"Plant response rating, Sugar beet",sugar beet; [2],50
same,"Plant response rating, Spring Wheat",spring wheat; [1],0
same,"Plant response rating, Spring Wheat","spring wheat; Rate 250 g/ha, 0 to 100 scale",10
same,"Plant response rating, Spring Wheat",spring wheat; [2],20
same,"Plant response rating, Wild buckwheat","wild buckwheat; Rate 125 g/ha, 0 to 100 scale",20
same,"Plant response rating, Wild buckwheat","wild buckwheat; Rate 250 g/ha, 0 to 100 scale (0 no effect, 100 complete control)",30
same,"Plant response rating, Wild buckwheat",wild buckwheat; [3],30
CC(C)N(C(=O)n1oc(=O)n(C(C)C)c1=O)c1ccc(F)cc1 [Compound 131],"Plant response rating, Goosegrass",goosegrass; [4],90
same,"Plant response rating, Goosegrass",goosegrass; [5],100
same,"Plant response rating, Goosegrass",goosegrass; [6],100
same,"Plant response rating, Goosegrass",goosegrass; [7],100
same,"Plant response rating, Goosegrass",goosegrass; Rate 250 g/ha,100
same,"Plant response rating, Sugar beet",sugar beet; [1],80
same,Sugar beet plant response rating (0 to 100 scale),sugar beet; Rate 250 g/ha,60
same,"Plant response rating, Sugar beet",sugar beet; [2],90
same,"Plant response rating, Spring Wheat",spring wheat; [1],70
same,Spring Wheat plant response rating (0 to 100 scale),spring wheat; Rate 250 g/ha,100
same,"Plant response rating, Spring Wheat",spring wheat; [2],100
same,"Plant response rating, Alexandergrass",Alexandergrass; [4],0
same,"Plant response rating, Alexandergrass",Alexandergrass; [5],50
same,"Plant response rating, Alexandergrass",Alexandergrass; [6],100
same,"Plant response rating, Alexandergrass",Alexandergrass; [7],100
same,"Plant response rating, Alexandergrass",Alexandergrass; Rate 250 g/ha,100
same,"Plant response rating, Cocklebur",cocklebur; Rate 140 g/ha,0
same,"Plant response rating, Cocklebur",cocklebur; Rate 280 g/ha,0
same,"Plant response rating, Cocklebur",cocklebur; Rate 560 g/ha,0
same,"Plant response rating, Cocklebur",cocklebur; Rate 1120 g/ha,10
same,"Plant response rating, Wild buckwheat","wild buckwheat; Rate 62 g/ha, 0 to 100 scale",50
same,"Plant response rating, Wild buckwheat","wild buckwheat; Rate 125 g/ha, 0 to 100 scale",0
same,"Plant response rating, Wild buckwheat",wild buckwheat; [3],0
same,Wild buckwheat plant response rating,"wild buckwheat; Rate 250 g/ha, 0 to 100 scale where 0 is no effect and 100 is complete control",0
same,"Plant response rating, Bermudagrass",bermuda-grass; [4],30
same,"Plant response rating, Bermudagrass",bermuda-grass; [5],90
same,"Plant response rating, Bermudagrass",bermuda-grass; [6],100
same,"Plant response rating, Bermudagrass",bermuda-grass; [7],100
same,"Plant response rating, Bermudagrass",bermuda-grass; Rate 250 g/ha,100
same,"Mean plant response rating, maize","maize hybrid P33G26; Safener Dichlormid (seed treatment), Rate 70 g ai/ha",3 percent control
same,"Mean plant response rating, maize","maize hybrid P33G26; Safener Dichlormid (seed treatment), Rate 140 g ai/ha",3 percent control
same,"Mean plant response rating, maize","maize hybrid P33G26; Safener Dichlormid (seed treatment), Rate 280 g ai/ha",3 percent control
same,"Mean plant response rating, maize","maize hybrid P33G26; Safener Dichlormid (seed treatment), Rate 560 g ai/ha",40 percent control
same,"Mean plant response rating, maize","maize hybrid P33G26; Safener Fenchlorazole-ethyl (seed treatment), Rate 70 g ai/ha",85 percent control
same,"Mean plant response rating, maize","maize hybrid P33G26; Safener Fenchlorazole-ethyl (seed treatment), Rate 140 g ai/ha",91 percent control
same,"Mean plant response rating, maize","maize hybrid P33G26; Safener Fenchlorazole-ethyl (seed treatment), Rate 280 g ai/ha",92 percent control
same,"Mean plant response rating, maize","maize hybrid P33G26; Safener Fenchlorazole-ethyl (seed treatment), Rate 560 g ai/ha",96 percent control
same,"Mean plant response rating, maize","maize hybrid P33G26; Safener None, Rate 70 g ai/ha",80 percent control
same,"Mean plant response rating, maize","maize hybrid P33G26; Safener None, Rate 140 g ai/ha",88 percent control
same,"Mean plant response rating, maize","maize hybrid P33G26; Safener None, Rate 280 g ai/ha",91 percent control
same,"Mean plant response rating, maize","maize hybrid P33G26; Safener None, Rate 560 g ai/ha",95 percent control
same,"Mean plant response rating, maize","maize hybrid P33G26; Safener naphthalic anhydride (seed treatment), Rate 140 g ai/ha",0 percent control
same,Injury to maize,"maize hybrid P33G26; absence of any safener, rates ranging from 70 to 560 g/ha",severely injurious to maize
same,"Plant response rating, Giant foxtail",giant foxtail; Rate 140 g/ha,10
same,"Plant response rating, Giant foxtail",giant foxtail; Rate 280 g/ha,40
same,"Plant response rating, Giant foxtail",giant foxtail; Rate 560 g/ha,60
same,"Plant response rating, Giant foxtail",giant foxtail; Rate 1120 g/ha,80
same,"Plant response rating, Surinam grass",surinam grass; Rate 140 g/ha,0
same,"Plant response rating, Surinam grass",surinam grass; Rate 280 g/ha,80
same,"Plant response rating, Surinam grass",surinam grass; Rate 560 g/ha,85
same,"Plant response rating, Surinam grass",surinam grass; Rate 1120 g/ha,90
